We go through six compounds from PubChem BioAssay (NCI).

What all share (assay): NCI-60 cell line screen, 48 h
Assay [1] deals with SNB-75 CNS.
In assay [2] the test system is HOP-92 NSCLC.
For assay [3], the system named is ACHN renal.
Assay [4] relates to SF-539 CNS.
The test system of assay [5] is SN12C renal.
Assay [6] deals with MDA-MB-231 breast.
The test system of assay [7] is HT29 colon.
Assay [8] relates to HCT-116 colon.
The subject of assay [9] is HOP-62 NSCLC.
In assay [10] the test system is SK-MEL-5 melanoma.

“And” between values parts separate entries of the source, which are not always exact repeats. Equal values may be shown once.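 Each compound was tested at five concentrations against cells in 96-well plates for 48 hours. Here, GI50 denotes the concentration required for 50% inhibition of growth. At the TGI there is no net growth.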 *1 amine or outer side, *2 acyl side, *3 side chain or, on linkers, in order; H or OH if unused. Where a SMILES comes first, the peptide text is derived from it. [ ]: non-standard residue; d: D form. X56 = CC[C@H](C)[C@H](OC(=O)[C@@H](C)[C@@H](CC)N[*:1])C(=O)[*:2]; X32 = C[C@H](N[*:1])C(=O)C(C)(C)C(=O)[*:2]; NMeY = CN[C@@H](Cc1ccc(O)cc1)C(=O)O; NMeL = CN[C@@H](CC(C)C)C(=O)O; NMeV = CN[C@H](C(=O)O)C(C)C

Take `COc1ccc(-c2csc(NC(=O)c3cc(O)c(O)c(O)c3)n2)cc1`: the GI50 in assay [1] is 6320 nM; in [2], 5240 nM; in assay [3], 3760 nM; in assay [4], 7640 nM; in [5] it was 7420 nM; in assay [6], 5180 nM. The GI50 in assay [7] was 18600 nM; in [8], 6690 nM; in assay [9] it was 8920 nM; in assay [10] it was 6040 nM. The TGI in assay [1] was more than 33300 nM; in [2], 26200 nM; in assay [3] it was more than 33300 nM; in assay [4], more than 33300 nM; in [5] it was more than 33300 nM; in assay [6] it was more than 33300 nM. Also, the TGI in assay [7], in assay [8], in assay [9] and in [10] was more than 33300 nM each time.

For the compound `COc1cc2c(cc1OCCCCOc1ccc(-c3nc4ccccc4s3)cc1)N=C[C@@H]1CCCN1C2=O`, the GI50 was 1260 nM in [1]; 335 nM in assay [2]; 742 nM in assay [3]; 768 nM in [4]; 1130 nM in [5]; 573 nM in assay [6]. Besides, the GI50 is 819 nM in [7], 511 nM in [8], 745 nM in assay [9] and 667 nM in assay [10]. The TGI is 2630 nM in assay [1]; 957 nM in [2]; 2590 nM in assay [3]; 2000 nM in [4]; 4000 nM in assay [5]; 2040 nM in [6]. The TGI in [7] stood at 15800 nM; in assay [8], 1620 nM; in assay [9], 2140 nM; in [10], 1850 nM.

For `CC[C@H](C)[C@@H]1OC(=O)[C@@H](C)[C@@H](CC)NC(=O)[C@H](C)NC(=O)C(C)(C)C(=O)[C@H](C)NC(=O)[C@H](Cc2ccc(OC)cc2)N(C)C(=O)[C@H](C(C)C)N(C)C(=O)CNC(=O)[C@H](CC(C)C)N(C)C(=O)CNC1=O` (cyclo(A[X56]G[NMeL]G[NMeV][NMeY](Me)[X32])), the GI50 in assay [1] is less than 15.4 nM; in assay [2], 15.6 nM; in assay [3], less than 16.5 nM; in assay [4] it was 23.9 nM; in assay [5], 43.3 nM; in assay [10], 135 nM. Further, the TGI in assay [2] is 238 nM and 31.6 nM; in assay [3], 332 nM and 90.8 nM; in [4], 50.8 nM and 126 nM; in assay [5] it was 9790 nM and 3680 nM; in [6], 792 nM; in [7], 13200 nM. Further, the TGI in assay [8] was 11300 nM; in assay [9], 175 nM; in assay [10], 173 nM and 462 nM.

`O=C1NN(c2ccccc2)C(=O)/C1=C/c1ccc(Br)o1`: the GI50 in [1] was 24300 nM; in assay [3], 13300 nM; in assay [4] it was 20500 nM; in [5], 951 nM; in assay [7] it was 4210 nM; in assay [8], 11400 nM. In addition, the GI50 in assay [10] was 1260 nM. Moreover, the TGI is 58600 nM in assay [1]; 3330 nM in assay [2]; more than 49400 nM in [3]; 41900 nM in assay [4]; 21300 nM in assay [5]; 20900 nM in [6]. The TGI in [7] worked out at 22100 nM; in assay [8], 25800 nM; in assay [9], 21400 nM; in assay [10] it was 2050 nM.

As to `C[C@H](N)C(=O)N1C[C@H](CCCB(O)O)[C@](N)(C(=O)O)C1`, the GI50 in assay [1], in assay [2], in assay [3], in [4], in assay [5] and in [6] was more than 100000 nM each time. For the same compound, the GI50 in assay [7], in [8], in assay [9] and in assay [10] was more than 100000 nM throughout. The TGI in assay [1], in assay [2], in assay [3], in assay [4], in assay [5] and in [6] was more than 100000 nM throughout. The TGI in [7], in assay [8], in assay [9] and in [10] was more than 100000 nM throughout.

Take `COc1ccc(N(C)c2c3ccccc3nc3[nH]c4ccccc4c23)cc1`: the GI50 in assay [1] is 5190 nM; in [2] it was 1070 nM; in [3], 558 nM; in [4] it was 354 nM; in assay [5] it was 392 nM; in [6], 616 nM. The GI50 is 617 nM in assay [7], 279 nM in assay [8], 407 nM in assay [9] and 835 nM in assay [10]. For the same compound, the TGI in assay [1] was 23600 nM; in assay [2], 4490 nM; in assay [3] it was 2160 nM; in assay [4], 1310 nM; in [5] it was 1530 nM; in assay [6], 2050 nM. Further, the TGI in [7] was 10300 nM; in [8], 1010 nM; in [9], 1790 nM; in [10] it was 2240 nM.
